Source: ChEMBL document CHEMBL5036370, “Indole-Containing Pyrazino[2,1-b]quinazoline-3,6-diones Active against Plasmodium and Trypanosomatids” (ACS Med Chem Lett, 2022)
Activity calls are given as the source filed them. The rule behind the calls is not given here.

Assays:
Leishmania infantum [1] = assay: Antileishmanial activity against axenic amastigote stage of Leishmania infantum infected in THP-1 cells assessed as reduction in parasite growth at 10 uM incubated for 72 hrs by luminescence analysis; type: functional, organism-based
Trypanosoma brucei [2] = assay: Antitrypanosomal activity against bloodstream form of Trypanosoma brucei Lister 427 assessed as parasite growth inhibition incubated for 72 hrs by resazurin staining based assay; type: functional, organism-based; details: Lister 427, 72 h
Plasmodium falciparum [3] = assay: Antimalarial activity against CQ-sensitive Plasmodium falciparum 3D7 assessed as parasite growth inhibition incubated for 48 hrs by SYBR Green I dye based fluorescence assay; type: functional, organism-based; details: 3D7, 48 h
[4] = Selectivity index, ratio of CC50 for cytotoxicity against human THP-1 cells to IC50 for antitrypanosomal activity against bloodstream form of Trypanosoma brucei Lister 427; type: toxicity, cell-based; details: read-out: Ratio CC50/IC50
[5] = Cytotoxicity against human THP-1 cells assessed as reduction in cell viability measured after 72 hrs by MTT assay; type: cell-based
V79 = assay: (§1) Cytotoxicity against Chinese hamster V79 cells measured after 24 hrs by MTT assay; type: cell-based, Cricetulus griseus; details: v79, 24 h
[6] = Hemolytic activity against human erythrocytes at <=10 uM incubated for 1 hr by microplate reader assay; type: ADME, tissue-based; details: erythrocyte
Trypanosoma brucei [7] = assay: Antitrypanosomal activity against bloodstream form of Trypanosoma brucei Lister 427 assessed as parasite growth inhibition at 10 uM incubated for 72 hrs by resazurin staining based assay; type: functional, organism-based
HepG2 = assay: Cytotoxicity against human HepG2 cells; type: cell-based
Plasmodium falciparum [8] = assay: Antiplasmodial activity against Plasmodium falciparum 3D7 infected in erythrocytes assessed as parasite growth inhibition measured after 72 hrs by LDH assay; type: functional, organism-based; details: 3D7, Erythrocyte
[9] = Selectivity index, ratio of CC50 for cytotoxicity against human THP-1 cells to IC50 for antileishmanial activity against axenic amastigote stage of Leishmania infantum infected in THP-1 cells; type: toxicity, cell-based; details: read-out: Ratio CC50/IC50
Leishmania infantum [10] = assay: Antileishmanial activity against axenic amastigote stage of Leishmania infantum infected in THP-1 cells assessed as reduction in parasite growth incubated for 72 hrs by luminescence analysis; type: functional, organism-based; details: THP-1, 72 h
[11] = Hemolytic activity against human erythrocytes at 0.04 to 10 uM incubated for 1 hr by microplate reader assay; type: ADME, tissue-based, Erythrocyte; details: dose 0.04-10 µM, read-out: Activity
Hemozoin [12] = assay: Inhibition of Beta-hematin formation at 12 to 48 uM after 24 hrs by microplate reader assay; details: dose 12-48 µM
[13] = Selectivity index, ratio of LD50 for cytotoxicity against Chinese hamster V79 cells to IC50 for antimalarial activity against CQ-sensitive Plasmodium falciparum 3D7; type: toxicity, cell-based; details: V79 cells versus Plasmodium falciparum 3D7, read-out: Ratio LD50/IC50
[14] = as §1; type: cell-based, Cricetulus griseus; details: V79 cells, read-out: LD50
Hemozoin [15] = assay: Inhibition of Beta-hematin formation at 24 to 96 uM after 24 hrs by microplate reader assay; details: dose 24-96 µM

SMILES	inhibition (Leishmania infantum [1])	IC50 (Trypanosoma brucei [2])	IC50 (Plasmodium falciparum [3])	selectivity ratio [4]	CC50 at 72 h [5]	LD50 (V79)	inhibition (Trypanosoma brucei [7])	further results
CC(C)[C@H]1NC(=O)[C@@H](Cc2c[nH]c3ccccc23)n2c1nc1ccccc1c2=O	inactive	7.1 µM	0.15 µM	> 14.1	> 100 µM	Not Active		
CCN(CC)CCCC(C)Nc1ccnc2cc(Cl)ccc12 (stereo not drawn) [CHLOROQUINE]								Activity [6]: Non-Toxic
CC(C)[C@H]1NC(=O)[C@H](Cc2c[nH]c3ccccc23)n2c1nc1ccccc1c2=O	inactive		> 10 µM		> 100 µM	Not Active	inactive	
CC(C)C[C@@H]1NC(=O)[C@@H](Cc2c[nH]c3ccccc23)n2c1nc1cc(-c3nnnn3C)ccc1c2=O	inactive		1.02 µM		> 50 µM	Not Active	inactive	
Clc1ccc2nccc(N3CCC(CN4CCC(c5c[nH]c6ccccc56)CC4)CC3)c2c1								EC50 (HepG2): > 10 µM; EC50 (Plasmodium falciparum [8]): 0.034 µM
CCCCCCCCCCCCCCCCOP(=O)([O-])OCC[N+](C)(C)C [MILTEFOSINE]					28.8 µM		inactive	selectivity ratio [9]: 28.8; IC50 (Leishmania infantum [10]): 1 µM
CC(C)C[C@@H]1NC(=O)[C@@H](Cc2c[nH]c3ccccc23)n2c1nc1ccc(Cl)cc1c2=O			> 10 µM			Not Active		
CC(C)C[C@@H]1NC(=O)[C@@H](Cc2c[nH]c3ccccc23)n2c1nc1ccc(I)cc1c2=O		4.1 µM	> 10 µM	12.2	50 µM	Not Active		selectivity ratio [9]: 6.7; IC50 (Leishmania infantum [10]): 7.4 µM
CSCC[C@@H]1NC(=O)[C@@H](Cc2c[nH]c3ccccc23)n2c1nc1ccccc1c2=O			> 10 µM			Not Active		
CC(C)[C@@H]1NC(=O)[C@@H](Cc2c[nH]c3ccccc23)n2c1nc1ccccc1c2=O	inactive		0.1 µM		> 100 µM		inactive	Activity [6]: Non-Toxic; hemolysis at 1 h, up to 10 µM [11]: < 6%; inhibition (Hemozoin [12]): inactive; selectivity ratio [13]: 19; CC50 at 24 h [14]: 1.91 µM
CC[C@H](C)[C@@H]1NC(=O)[C@@H](Cc2c[nH]c3ccccc23)n2c1nc1cc(Cl)c(Cl)cc1c2=O	inactive	5.8 µM	1.51 µM	8.6	50 µM	Not Active		
CC(C)[C@@H]1NC(=O)[C@H](Cc2c[nH]c3ccccc23)n2c1nc1ccccc1c2=O	inactive	4.6 µM	> 10 µM	> 21.7	> 100 µM	Not Active		
CC(C)C[C@@H]1NC(=O)[C@@H](Cc2c[nH]c3ccccc23)n2c1nc1cc(Cl)c(Cl)cc1c2=O	inactive	5.9 µM	0.2 µM	4.2	25 µM			Activity [6]: Non-Toxic; hemolysis at 1 h, up to 10 µM [11]: < 6%; inhibition (Hemozoin [15]): inactive; selectivity ratio [13]: 70; CC50 at 24 h [14]: 14 µM
CC[C@H](C)[C@@H]1NC(=O)[C@@H](Cc2c[nH]c3ccccc23)n2c1nc1ccc(Cl)cc1c2=O			> 10 µM			Not Active		
CC(C)C[C@@H]1NC(=O)[C@@H](Cc2c[nH]c3ccccc23)n2c1nc1cc(I)c(I)cc1c2=O			> 10 µM			Not Active		
O=C1N[C@H](Cc2ccc(OCc3ccccc3)cc2)c2nc3ccccc3c(=O)n2[C@H]1Cc1c[nH]c2ccccc12	inactive	1.6 µM	> 10 µM	> 62.5	> 100 µM	Not Active		

SMILES	inhibition (Leishmania infantum [1])	IC50 (Trypanosoma brucei [2])	IC50 (Plasmodium falciparum [3])	selectivity ratio [4]	CC50 at 72 h [5]	LD50 (V79)	inhibition (Trypanosoma brucei [7])	further results
CC(C)C[C@@H]1NC(=O)[C@@H](Cc2c[nH]c3ccccc23)n2c1nc1ncccc1c2=O	inactive		3.76 µM		> 100 µM	Not Active	inactive	
O=C1N[C@H](Cc2ccc(O)cc2)c2nc3ccccc3c(=O)n2[C@H]1Cc1c[nH]c2ccccc12	inactive		4.18 µM		> 100 µM	Not Active	inactive	
CC(C)C[C@@H]1NC(=O)[C@@H](Cc2c[nH]c3ccccc23)n2c1nc1ccc(O)cc1c2=O	inactive	8.6 µM	0.73 µM	> 11.6	> 100 µM	Not Active		
CC[C@H](C)[C@@H]1NC(=O)[C@@H](Cc2c[nH]c3ccccc23)n2c1nc1ccc(Br)cc1c2=O		5.3 µM	> 10 µM	9.4	50 µM	Not Active		selectivity ratio [9]: 6.4; IC50 (Leishmania infantum [10]): 7.8 µM
O=C1N[C@@H](Cc2c[nH]c3ccccc23)c2nc3ccccc3c(=O)n2[C@@H]1Cc1c[nH]c2ccccc12			> 10 µM			Not Active		
C[C@H]1NC(=O)[C@@H](Cc2c[nH]c3ccccc23)n2c1nc1ccccc1c2=O [FUMIQUINAZOLINE G]			3.68 µM			Not Active		
CC[C@H](C)[C@@H]1NC(=O)[C@@H](Cc2c[nH]c3ccccc23)n2c1nc1ccccc1c2=O			> 10 µM			Not Active		
COc1ccc2nc3n(c(=O)c2c1)[C@H](Cc1c[nH]c2ccccc12)C(=O)N[C@H]3CC(C)C	inactive		> 10 µM		> 100 µM	Not Active	inactive	
Cc1ccc2nc3n(c(=O)c2c1)[C@H](Cc1c[nH]c2ccccc12)C(=O)N[C@H]3CC(C)C	inactive		> 10 µM		> 100 µM	Not Active	inactive	
CC(C)C[C@@H]1NC(=O)[C@H](Cc2c[nH]c3ccccc23)n2c1nc1ccccc1c2=O	inactive		> 10 µM		50 µM	Not Active	inactive	
N=C(N)c1ccc(OCCCCCOc2ccc(C(=N)N)cc2)cc1 [PENTAMIDINE]	inactive				> 10 µM			
CC(C)C[C@H]1NC(=O)[C@H](Cc2c[nH]c3ccccc23)n2c1nc1ccccc1c2=O	inactive		2 µM		> 100 µM	Not Active	inactive	
CC(C)C[C@H]1NC(=O)[C@@H](Cc2c[nH]c3ccccc23)n2c1nc1ccccc1c2=O		0.38 µM	0.47 µM	65.7	25 µM	Not Active		selectivity ratio [9]: 9.6; IC50 (Leishmania infantum [10]): 2.6 µM
CC(C)C[C@@H]1NC(=O)[C@@H](Cc2c[nH]c3ccccc23)n2c1nc1ccccc1c2=O	inactive		0.05 µM		> 100 µM		inactive	Activity [6]: Non-Toxic; hemolysis at 1 h, up to 10 µM [11]: < 6%; inhibition (Hemozoin [12]): inactive; selectivity ratio [13]: 34; CC50 at 24 h [14]: 1.78 µM
O=C1N[C@@H](Cc2ccc(OCc3ccccc3)cc2)c2nc3cc(Cl)c(Cl)cc3c(=O)n2[C@@H]1Cc1c[nH]c2ccccc12	inactive	3.9 µM	4 µM	> 25.6	> 100 µM	Not Active		
CC(C)C[C@@H]1NC(=O)[C@@H](Cc2c[nH]c3ccccc23)n2c1nc1cnccc1c2=O	inactive		4 µM		> 100 µM	Not Active	inactive	
